Assay results: the supplement of paper PMC10307832

Key:
Test in all cases: relative viability (nuclei count vs DMSO), 5 days (fraction); higher = more cells survive
Afatinib + Lapatinib = compound: CN(C)C/C=C/C(=O)Nc1cc2c(Nc3ccc(F)c(Cl)c3)ncnc2cc1O[C@H]1CCOC1 [Afatinib] + CS(=O)(=O)CCNCc1ccc(-c2ccc3ncnc(Nc4ccc(OCc5cccc(F)c5)c(Cl)c4)c3c2)o1 [Lapatinib] (partner 2 µM)
Procedure, shortened: (§1)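 Each reported value is a median over duplicate plates. It expresses relative viability: treated-well nuclei count divided by vehicle-well nuclei count. Lung cancer cell lines in 1536-well plates were dosed by pin tool a day after seeding, alone with one drug or with a fixed anchor-drug dose plus five library-drug doses (not always all listed) in √10 steps, and nuclei were counted after 5 days.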

Afatinib + Linsitinib = compound: CN(C)C/C=C/C(=O)Nc1cc2c(Nc3ccc(F)c(Cl)c3)ncnc2cc1O[C@H]1CCOC1 [Afatinib] + C[C@]1(O)C[C@@H](c2nc(-c3ccc4ccc(-c5ccccc5)nc4c3)c3c(N)nccn32)C1 [Linsitinib] (partner 1 µM)
Procedure, shortened: as §1

Afatinib + OSI-027 = compound: CN(C)C/C=C/C(=O)Nc1cc2c(Nc3ccc(F)c(Cl)c3)ncnc2cc1O[C@H]1CCOC1 [Afatinib] + COc1cccc2cc(-c3nc([C@H]4CC[C@H](C(=O)O)CC4)n4ncnc(N)c34)[nH]c12 [OSI-027] (partner 0.5 µM)
Procedure, shortened: as §1

Afatinib + Luminespib = compound: CN(C)C/C=C/C(=O)Nc1cc2c(Nc3ccc(F)c(Cl)c3)ncnc2cc1O[C@H]1CCOC1 [Afatinib] + CCNC(=O)c1noc(-c2cc(C(C)C)c(O)cc2O)c1-c1ccc(CN2CCOCC2)cc1 [Luminespib] (partner 0.01 µM)
Procedure, shortened: as §1

Cell Line	relative viability (Afatinib + Lapatinib; first compound 0.005 µM)	relative viability (Afatinib + Lapatinib; first compound 0.01581 µM)	relative viability (Afatinib + Lapatinib; first compound 0.05 µM)	relative viability (Afatinib + Lapatinib; first compound 0.1581 µM)	relative viability (Afatinib + Lapatinib; first compound 0.5 µM)	relative viability (Afatinib + Linsitinib; first compound 0.005 µM)	relative viability (Afatinib + Linsitinib; first compound 0.01581 µM)	relative viability (Afatinib + Linsitinib; first compound 0.05 µM)	relative viability (Afatinib + Linsitinib; first compound 0.1581 µM)	relative viability (Afatinib + Linsitinib; first compound 0.5 µM)	relative viability (Afatinib + OSI-027; first compound 0.005 µM)	relative viability (Afatinib + OSI-027; first compound 0.01581 µM)	relative viability (Afatinib + OSI-027; first compound 0.05 µM)	relative viability (Afatinib + OSI-027; first compound 0.1581 µM)	relative viability (Afatinib + OSI-027; first compound 0.5 µM)	relative viability (Afatinib + Luminespib; first compound 0.005 µM)	relative viability (Afatinib + Luminespib; first compound 0.01581 µM)	relative viability (Afatinib + Luminespib; first compound 0.05 µM)	relative viability (Afatinib + Luminespib; first compound 0.1581 µM)	relative viability (Afatinib + Luminespib; first compound 0.5 µM)
NCI-H1437	0.891	0.79	0.758	0.778	0.779	1.18	1.1	0.941	0.98	0.967	0.988	0.848	0.894	0.873	0.9	1.2	1.14	1.23	1.07	1.12
SK-LU-1	1.33	0.89	0.803	0.941	0.915	1.39	1.11	1.2	1.02	1.01	0.389	0.415	0.327	0.318	0.352	0.19	0.206	0.233	0.193	0.193
BEN	0.7	0.694	0.832	0.705	0.804	0.988	0.875	1.01	0.895	0.962	0.326	0.283	0.297	0.299	0.298	0.366	0.24	0.261	0.549	0.288
LC-2-ad	1.07	0.991	1.07	0.961	0.925	0.935	0.817	0.794	0.696	0.682	0.871	0.67	0.823	0.575	0.622	1.01	1.05	1.13	1.08	1.05
COR-L23	1.22	0.916	0.877	0.933	1.11	0.874	0.894	0.883	0.825	0.848	0.941	0.829	0.755	0.739	0.78	0.804	0.603	0.773	0.644	0.68
RERF-LC-KJ	0.83	0.919	0.849	0.834	0.83	0.888	0.9	0.76	0.656	0.716	0.527	0.439	0.448	0.336	0.318	1.19	1.11	1.19	1.1	1.08
NCI-H1915	1.02	0.944	0.994	0.959	0.876	1.13	1.08	1.11	1.07	1.07	0.742	0.613	0.602	0.611	0.469	0.807	0.848	0.772	0.743	0.596
NCI-H596	1.09	1.08	1.09	1.02	1.02	1.06	1.16	1.1	1.02	0.888	0.728	0.701	0.746	0.613	0.651	1.01	1	0.894	0.778	0.984
NCI-H2009	0.964	0.934	1.07	0.995	1.01	1.23	1.14	1.23	1.13	1.22	0.635	0.633	0.714	0.516	0.459	1.08	1.04	1.13	1.02	1.08
NCI-H2126	0.779	0.688	0.686	0.761	0.799	0.724	0.701	0.583	0.465	0.424	0.732	0.641	0.547	0.494	0.415	0.958	0.861	0.796	0.681	0.718
LXF-289	0.937	0.91	0.95	0.903	0.917	1	0.927	0.947	0.851	0.947	0.82	0.606	0.62	0.602	0.67	0.748	0.604	0.719	0.656	0.564
NCI-H1563	0.965	0.874	1.08	1.04	0.854	1.32	1.14	1.27	1.06	1.21	0.729	0.739	0.737	0.709	0.746	0.489	0.558	0.552	0.501	0.515
HCC-44	1.09	1.03	0.953	0.97	1.02	0.63	0.659	0.702	0.593	0.669	0.588	0.446	0.521	0.542	0.431	0.957	1.11	1.13	1.17	1.26
